Test results published in PubChem BioAssay (NCI).
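A five-concentration, 48-hour dose response in 96-well plates underlies each endpoint, interpolated linearly between surrounding concentrations. The concentration for 50% growth inhibition is given as GI50. TGI: concentration producing complete growth inhibition.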

Experiments:
Assay in all cases: NCI anticancer screen, dose series, 48 h
[1] = system: 786-0 renal
[2] = system: A498 renal
[3] = system: A549 NSCLC
[4] = system: ACHN renal
[5] = system: BT-549 breast
[6] = system: CAKI-1 renal
[7] = system: DU-145 prostate
[8] = system: EKVX NSCLC
[9] = system: HCC-2998 colon
[10] = system: HCT-116 colon
[11] = system: HCT-15 colon
[12] = system: HOP-62 NSCLC
[13] = system: HOP-92 NSCLC
[14] = system: HS 578T breast
[15] = system: IGROV1 ovarian
[16] = system: KM12 colon
[17] = system: LOX IMVI melanoma
[18] = system: M14 melanoma
[19] = system: MALME-3M melanoma
[20] = system: MCF7 breast
[21] = system: MDA-MB-231 breast
[22] = system: MDA-MB-435
[23] = system: MOLT-4 leukemia
[24] = system: NCI-H226 lung
[25] = system: NCI-H23 lung
[26] = system: NCI-H460 lung
[27] = system: NCI-H522 lung
[28] = system: NCI/ADR-RES ovarian
[29] = system: OVCAR-3 ovarian
[30] = system: OVCAR-4 ovarian
[31] = system: OVCAR-5 ovarian
[32] = system: OVCAR-8 ovarian
[33] = system: PC-3 prostate
[34] = system: RPMI-8226 leukemia
[35] = system: RXF 393 renal
[36] = system: SF-268 CNS
[37] = system: SF-295 CNS
[38] = system: SF-539 CNS
[39] = system: SK-MEL-2 melanoma
[40] = system: SK-MEL-5 melanoma
[41] = system: SN12C renal
[42] = system: SR leukemia
[43] = system: SW-620 colon
[44] = system: TK-10 renal
[45] = system: U251 CNS
[46] = system: UACC-257 melanoma
[47] = system: UACC-62 melanoma
[48] = system: UO-31 renal
[49] = system: CCRF-CEM leukemia
[50] = system: COLO 205 colon
[51] = system: HT29 colon
[52] = system: K-562 leukemia
[53] = system: SK-MEL-28 melanoma
[54] = system: SK-OV-3 ovarian
[55] = system: SNB-19 CNS
[56] = system: SNB-75 CNS

COc1n[n+]([O-])c(C)cc1[N+](=O)[O-]
GI50 [1]: 8.4 µM
TGI [1]: 21.7 µM
GI50 [2]: 20.2 µM
TGI [2]: 46.3 µM
GI50 [3]: 5.5 µM
TGI [3]: 24.6 µM
GI50 [4]: 5.14 µM
TGI [4]: 18.1 µM
GI50 [5]: 18.9 µM
TGI [5]: 33.2 µM
GI50 [6]: 4.84 µM
TGI [6]: 19.1 µM
GI50 [7]: 15.7 µM
TGI [7]: 29.3 µM
GI50 [8]: 18.1 µM
TGI [8]: 34.3 µM
GI50 [9]: 14.3 µM
TGI [9]: 27.6 µM
GI50 [10]: 10.2 µM
TGI [10]: 23.9 µM
GI50 [11]: 2.74 µM
TGI [11]: 13.9 µM
GI50 [12]: 16.6 µM
TGI [12]: 31.5 µM
GI50 [13]: 16.2 µM
TGI [13]: 35.2 µM
GI50 [14]: 32.3 µM
TGI [14]: 67.3 µM
GI50 [15]: 12.1 µM
TGI [15]: 24.8 µM
GI50 [16]: 11.4 µM
TGI [16]: 30.3 µM
GI50 [17]: 12.7 µM
TGI [17]: 36 µM
GI50 [18]: 4.97 µM
TGI [18]: 18.3 µM
GI50 [19]: 3.04 µM
TGI [19]: 9.85 µM
GI50 [20]: 2.07 µM
TGI [20]: 16.2 µM
GI50 [21]: 19.5 µM
TGI [21]: 42.2 µM
GI50 [22]: 16.2 µM
TGI [22]: 33.8 µM
GI50 [23]: 10.7 µM
TGI [23]: 35.1 µM
GI50 [24]: 24.4 µM
TGI [24]: 63.3 µM
GI50 [25]: 14.8 µM
TGI [25]: 30.3 µM
GI50 [26]: 3.05 µM
TGI [26]: 16.4 µM
GI50 [27]: 8.26 µM
TGI [27]: 22.7 µM
GI50 [28]: 19.1 µM
TGI [28]: 43.7 µM
GI50 [29]: 8.44 µM
TGI [29]: 28.4 µM
GI50 [30]: 16.1 µM
TGI [30]: 30.5 µM
GI50 [31]: 19.6 µM
TGI [31]: 35.9 µM
GI50 [32]: 13.4 µM
TGI [32]: 39.5 µM
GI50 [33]: 15.9 µM
TGI [33]: 32.6 µM
GI50 [34]: 2730 nM
TGI [34]: 19.1 µM
GI50 [35]: 13.3 µM
TGI [35]: 28.7 µM
GI50 [36]: 18.1 µM
TGI [36]: 39.4 µM
GI50 [37]: 11.3 µM
TGI [37]: 28.5 µM
GI50 [38]: 19.5 µM
TGI [38]: 35.4 µM
GI50 [39]: 11.2 µM
TGI [39]: 24.5 µM
GI50 [40]: 11.3 µM
TGI [40]: 24.5 µM
GI50 [41]: 13.5 µM
TGI [41]: 31.6 µM
GI50 [42]: 11.1 µM
TGI [42]: 31.2 µM
GI50 [43]: 15.7 µM
TGI [43]: 39.6 µM
GI50 [44]: 2.42 µM
TGI [44]: 10.2 µM
GI50 [45]: 16.8 µM
TGI [45]: 34.5 µM
GI50 [46]: 10.9 µM
TGI [46]: 24.4 µM
GI50 [47]: 10.7 µM
TGI [47]: 23.7 µM
GI50 [48]: 12.6 µM
TGI [48]: 25.4 µM

O=C1N=C2c3c(sc4c3CCCC4)N=CN2C1N=Nc1ccc(Cl)cc1 (stereo unspecified)
GI50 [1]: 39.5 µM
TGI [1]: > 100 µM
GI50 [2]: 21.3 µM
TGI [2]: 47.4 µM
GI50 [3]: 42.2 µM
TGI [3]: > 100 µM
GI50 [4]: 32.3 µM
TGI [4]: > 100 µM
GI50 [5]: 1.44 µM
TGI [5]: 18.1 µM
GI50 [6]: 30.9 µM
TGI [6]: > 100 µM
GI50 [49]: 13.8 µM
TGI [49]: 87.9 µM
GI50 [50]: 10.7 µM
TGI [50]: 39.3 µM
GI50 [7]: 0.291 µM
TGI [7]: 25.3 µM
GI50 [8]: 7.79 µM
TGI [8]: 39.1 µM
GI50 [9]: 24.4 µM
TGI [9]: 91.2 µM
GI50 [10]: 17.8 µM
TGI [10]: > 100 µM
GI50 [11]: 37.2 µM
TGI [11]: > 100 µM
GI50 [12]: 41.1 µM
TGI [12]: > 100 µM
GI50 [13]: 1.95 µM
TGI [13]: 20.2 µM
GI50 [14]: 29.8 µM
TGI [14]: > 100 µM
GI50 [51]: 11.7 µM
TGI [51]: 39.8 µM
GI50 [15]: 49.6 µM
TGI [15]: > 100 µM
GI50 [52]: 5.13 µM
TGI [52]: 87.1 µM
GI50 [16]: 13.6 µM
TGI [16]: 44 µM
GI50 [17]: 29.8 µM
TGI [17]: > 100 µM
GI50 [18]: 24.7 µM
TGI [18]: > 100 µM
GI50 [19]: 23.9 µM
TGI [19]: 87.2 µM
GI50 [20]: 20 µM
TGI [20]: 66.4 µM
GI50 [21]: 20.1 µM
TGI [21]: > 100 µM
GI50 [22]: 19.8 µM
TGI [22]: 58.1 µM
GI50 [23]: 13 µM
TGI [23]: 53 µM
GI50 [24]: 22.8 µM
TGI [24]: > 100 µM
GI50 [25]: 12.3 µM
TGI [25]: 63.9 µM
GI50 [26]: 27.8 µM
TGI [26]: 79.8 µM
GI50 [27]: 26.6 µM
TGI [27]: > 100 µM
GI50 [28]: 26.2 µM
TGI [28]: > 100 µM
GI50 [29]: 21.9 µM
TGI [29]: > 100 µM
GI50 [30]: 51.9 µM
TGI [30]: > 100 µM
GI50 [31]: 22.6 µM
TGI [31]: > 100 µM
GI50 [32]: 31.3 µM
TGI [32]: > 100 µM
GI50 [33]: 13 µM
TGI [33]: 75.3 µM
GI50 [34]: 3200 nM
TGI [34]: 27.6 µM
GI50 [35]: 36.6 µM
TGI [35]: > 100 µM
GI50 [36]: 34.6 µM
TGI [36]: > 100 µM
GI50 [37]: 25.4 µM
TGI [37]: 86.2 µM
GI50 [38]: 15.9 µM
TGI [38]: 46.8 µM
GI50 [39]: > 100 µM
TGI [39]: > 100 µM
GI50 [53]: 35.6 µM
TGI [53]: > 100 µM
GI50 [40]: 3.61 µM
TGI [40]: 15 µM
GI50 [54]: 47.2 µM
TGI [54]: 97.6 µM
GI50 [41]: 28.8 µM
TGI [41]: > 100 µM
GI50 [55]: 25.2 µM
TGI [55]: > 100 µM
GI50 [56]: > 100 µM
TGI [56]: > 100 µM
GI50 [43]: 23.1 µM
TGI [43]: > 100 µM
GI50 [44]: 37.5 µM
TGI [44]: > 100 µM
GI50 [45]: 20.2 µM
TGI [45]: > 100 µM
GI50 [46]: 34.1 µM
TGI [46]: > 100 µM
GI50 [47]: 16.7 µM
TGI [47]: 47.1 µM
GI50 [48]: 39.3 µM
TGI [48]: > 100 µM
